# According to US20160008471A1, “TRANSDERMAL FORMULATIONS” (priority 2013, published 2016):
# Where a name gives a salt, the structure may show the parent alone. Read-outs that look alike come from different tables or passages of the source.
# Legend:
# [1] = at RT; cited from earlier work
# [2] = cited from earlier work; for pKa (acidic): first pKa (acidic) column; for Solubility (Aq): in words
# [3] = male, bovine, pH 7.4
# [4] = horse
# [5] = rabbit
# [6] = Moxidectin skin deposition study; format: in vitro ADME, bovine; details: 72 hours
# Procedure: The amount of moxidectin accumulating in the bovine skin was determined using whole skin thickness (approx. […]) and split skin thickness (approx. […]) after 72 hours. The skin tissue was physically broken down using a Gentle MACS dissociator (Miltenyi Biotec GmbH, Germany) with 5 mL of methanol added into each sample. The dissociator setting was RNA-02.01 with M-type tubes for 90 seconds. Centrifuged samples had the supernatant collected and diluted 2 times with ACN before being analysed by the HPLC method.
# [7] = Stability of test composition with surfactants (phase separation, crystals); format: physicochemical; details: surfactant added to test composition (Table 5); room temperature (24±1° C.)
# Procedure: The purpose of this study was to examine the stability of the formula which may comprise surface active agents such as surfactants. […] Three temperatures (RT, 4.5° C. and −20° C.) were used to monitor for phase separation and/or drug crystal formation every one or two days from 6 days.
# [8] = Solubility of actives in individual solvents
# Description: The purpose of these studies was to identify solvents and co-solvents to optimise solubility of actives and the physical/chemical stability of product.
molecule,measurement,setting,value
"CCCCCCCC/C=C\CCCCCCCCOCCOCCO [Brij 93, polyoxyethylene (2) oleyl ether]",HLB,[1],4.5 ± 0.4
"C[C@]12CCC(=O)C=C1CC[C@@H]1[C@@H]2[C@@H](O)C[C@@]2(C)[C@H]1CC[C@]2(O)C(=O)CO [Hydrocortisone, Hydrocortisone (base)]",pKa (basic),[2],−2.8
same,pKa (acidic),[2],12.6
"c1ccc([C@H]2CN3CCSC3=N2)cc1 [Lev. Base, levamisole base]",logP,[2],1.8
same,pKa (acidic),[2],8
same,Solubility (Aq),[2],Insoluble
same,pKa,[2]; stated for the basic drug LEV,8
same,flux rate of levamisole,[3]; 72 h,949.6±80.8 μg/cm^2/hr
"CCN(CC)CCNC(=O)c1cc(Cl)c(N)cc1OC [Metoclopramide, Metacloprimide HCl]",lag T,[4],3.11 h
same,Mean (μg/cm2) permeated,[4]; 0 h,0 μg/cm2
same,Mean (μg/cm2) permeated,[4]; 2 h,0 μg/cm2
same,Mean (μg/cm2) permeated,[4]; 4 h,0 μg/cm2
same,Mean (μg/cm2) permeated,[4]; 6 h,0 μg/cm2
same,Mean (μg/cm2) permeated,[4]; 8 h,68.1 μg/cm2
same,Mean (μg/cm2) permeated,[4]; 10 h,679 μg/cm2
same,Mean (μg/cm2) permeated,[4]; 20 h,1372 μg/cm2
same,Flux,[4]; 24 h,67.0±24.6 μg/cm^2/hr
same,Mean (μg/cm2) permeated,[4]; 24 h,1533 μg/cm2
same,Mean (μg/cm2) permeated,[4]; 26 h,1477 μg/cm2
same,Mean (μg/cm2) permeated,[4]; 28 h,1640 μg/cm2
same,Mean (μg/cm2) permeated,[4]; 44 h,2604 μg/cm2
same,Mean (μg/cm2) permeated,[4]; 46 h,2784 μg/cm2
same,Mean (μg/cm2) permeated,[4]; 48 h,2910 μg/cm2
same,Mean (μg/cm2) permeated,[4]; 50 h,2930 μg/cm2
same,Mean (μg/cm2) permeated,[4]; 52 h,3078 μg/cm2
same,Mean (μg/cm2) permeated,[4]; 68 h,3350 μg/cm2
same,Mean (μg/cm2) permeated,[4]; 70 h,3440 μg/cm2
same,APC,[4]; 72 h,62.7 cm/s × 10^−8
same,Extent 72 h,[4]; 72 h,3454 μg/cm^2
same,Flux,[4]; 72 h,67.0 μg/cm^2/hr
same,Mean (μg/cm2) permeated,[4]; 72 h,3454 μg/cm2
same,Mean (μg/cm2) permeated,[3]; 0 h,0 μg/cm2
same,Mean (μg/cm2) permeated,[3]; 2 h,16.2 μg/cm2
same,Mean (μg/cm2) permeated,[3]; 4 h,251 μg/cm2
same,Mean (μg/cm2) permeated,[3]; 6 h,456 μg/cm2
same,Mean (μg/cm2) permeated,[3]; 8 h,960 μg/cm2
same,Mean (μg/cm2) permeated,[3]; 20 h,2188 μg/cm2
same,Mean (μg/cm2) permeated,[3]; 24 h,2252 μg/cm2
same,Mean (μg/cm2) permeated,[3]; 26 h,2718 μg/cm2
same,Mean (μg/cm2) permeated,[3]; 44 h,4779 μg/cm2
same,Mean (μg/cm2) permeated,[3]; 48 h,5169 μg/cm2
same,Mean (μg/cm2) permeated,[3]; 52 h,5394 μg/cm2
same,Flux,[3]; 58 h,109.4±11.8 μg/cm^2/hr
same,Mean (μg/cm2) permeated,[3]; 68 h,5336 μg/cm2
same,Mean (μg/cm2) permeated,[3]; 70 h,5613 μg/cm2
same,APC,[3]; 72 h,97.1 cm/s × 10^−8
same,Extent 72 h,[3]; 72 h,5346 μg/cm^2
same,Flux,[3]; 72 h,109 μg/cm^2/hr
same,Mean (μg/cm2) permeated,[3]; 72 h,5346 μg/cm2
same,lag T,[3],1.07 h
same,Flux,[5],38.6±9.2 μg/cm^2/hr
same,lag T,[5],4.84 h
same,Mean (μg/cm2) permeated,[5]; 0 h,0 μg/cm2
same,Mean (μg/cm2) permeated,[5]; 2 h,0 μg/cm2
same,Mean (μg/cm2) permeated,[5]; 4 h,0 μg/cm2
same,Mean (μg/cm2) permeated,[5]; 6 h,0 μg/cm2
same,Mean (μg/cm2) permeated,[5]; 8 h,0 μg/cm2
same,Mean (μg/cm2) permeated,[5]; 10 h,32.3 μg/cm2
same,Mean (μg/cm2) permeated,[5]; 20 h,685 μg/cm2
same,Mean (μg/cm2) permeated,[5]; 24 h,772 μg/cm2
same,Mean (μg/cm2) permeated,[5]; 26 h,831 μg/cm2
same,Mean (μg/cm2) permeated,[5]; 28 h,925 μg/cm2
same,Mean (μg/cm2) permeated,[5]; 44 h,1537 μg/cm2
same,Mean (μg/cm2) permeated,[5]; 46 h,1612 μg/cm2
same,Mean (μg/cm2) permeated,[5]; 48 h,1567 μg/cm2
same,Mean (μg/cm2) permeated,[5]; 50 h,1782 μg/cm2
same,Mean (μg/cm2) permeated,[5]; 52 h,1968 μg/cm2
same,Mean (μg/cm2) permeated,[5]; 68 h,2391 μg/cm2
same,Mean (μg/cm2) permeated,[5]; 70 h,2387 μg/cm2
same,APC,[5]; 72 h,45.7 cm/s × 10^−8
same,Extent 72 h,[5]; 72 h,2515 μg/cm^2
same,Flux,[5]; 72 h,38.6 μg/cm^2/hr
same,Mean (μg/cm2) permeated,[5]; 72 h,2515 μg/cm2
"CO/N=C1\C[C@]2(C[C@@H]3C[C@@H](C/C=C(\C)C[C@@H](C)/C=C/C=C4\CO[C@@H]5[C@H](O)C(C)=C[C@@H](C(=O)O3)[C@]45O)O2)O[C@H](/C(C)=C/C(C)C)[C@H]1C [Moxidectin, moxidectin]",Solubility (Aq),[2],Insoluble
same,proportion of the drug in Donor,[6]; 500 μm skin,51%
same,proportion of the drug in Receptor,[6]; 500 μm skin,31%
same,proportion of the drug in Skin,[6]; 500 μm skin,18%
same,proportion of the drug in Donor,[6]; Whole skin,65%
same,proportion of the drug in Receptor,[6]; Whole skin,3%
same,proportion of the drug in Skin,[6]; Whole skin,32%
same,flux rate of moxidectin,[3]; 72 h,475±185.2 ng/cm^2/hr
CCCCCCCC/C=C\CCCCCCCC(=O)OCCOCC(OCCO)C1OCC(OCCO)C1OCCO (stereo not shown) [Tween 80],"Stability of test composition, RT",[7],S
Span 60,HLB,[1],4.7
Span 80,HLB,[1],4.3
Tocopherol,HLB,[1],6.0
abamectin,logP,[2],4.4
same,Solubility (Aq),[2],Insoluble
same,Maximum Solubility % w/w,[8]; in AGNIQUE AMD 10,At least 1 % w/w
same,Maximum Solubility % w/w,[8]; in AGNIQUE AMD 810,At least 1 % w/w
same,Maximum Solubility % w/w,[8]; in Cremophor,At least 1 % w/w
same,Maximum Solubility % w/w,[8]; in DMSO,At least 1 % w/w
same,Maximum Solubility % w/w,[8]; in Dipropylenglycol dimethylether,At least 1 % w/w
same,Maximum Solubility % w/w,[8]; in Ecoteric T80,At least 1 % w/w
same,Maximum Solubility % w/w,[8]; in Glycerol Formal,19 % w/w
same,Maximum Solubility % w/w,[8]; in Isopropyl Mirystate,At least 1 % w/w
same,Maximum Solubility % w/w,[8]; in Isopropyleneglycol,7 % w/w
same,Maximum Solubility % w/w,[8]; in Isosorbide,At least 1 % w/w
same,Maximum Solubility % w/w,[8]; in PEG400,At least 1 % w/w
same,Maximum Solubility % w/w,[8]; in Polysorbate 20,At least 1 % w/w
same,Maximum Solubility % w/w,[8]; in Span 80,At least 1 % w/w
same,Maximum Solubility % w/w,[8]; in Tetraglycol,8 % w/w
same,Maximum Solubility % w/w,[8]; in Triacetin,3 % w/w
same,Maximum Solubility % w/w,[8]; in Tripropylene glycol methylether (TPGME),8 % w/w
